Results taken from patent US12630600B2 (MEDIMMUNE LIMITED, priority 2022, dated 2026).
Each block holds one molecule with its values, some of them ahead of it. Starred links: 1 amine or outer side, 2 acyl side, 3 side chain; linkers in the order of their positions; H or OH if unused. Non-standard residues stand in square brackets, D forms with d. Residues, ends and D or L forms follow the SMILES beside them. Groups on a side chain read outwards from the residue. No end group written: not given here. *: point of attachment. C18 diacid = O=C(O)CCCCCCCCCCCCCCCCC(=O)*; γGlu = O=C(O)[C@H](CCC(=O)[*:2])N[*:1]; αMeF = C[C@](N)(Cc1ccccc1)C(=O)O; PEG2 = NCCOCCOCCC(=O)O; AEEA = NCCOCCOCC(=O)O; Aib = CC(C)(N)C(=O)O

Assays:
[1] = biological target: T1, human GLP-1 receptor (hGLP-1R) (Homo sapiens, UniProt P43220); assay: cAMP production (HTRF) in CHO cells expressing human GLP-1 receptor; type: cell-based; settings: % GLP-1R activity relative to GLP-1 / % GlucR activity relative to glucagon
T1 construct: expressed in transfected cells; host or cells: CHO
Description: Cells were re-suspended in assay buffer at a batch-dependent optimized concentration (typically hGLP-1R cells at 1×10^5 cells/mL, hGCGR cells at 2×10^5 cells/mL).
Cells were added to the assay plate using a multidrop dispenser and incubated at room temperature for 30 minutes before measuring the cAMP level using a cAMP dynamic 2 homogeneous time resolved Fluorescence (HTRF) kit (Cisbio Bioassays #62AM4PEJ) following the two-step protocol as per manufacturer's recommendations. In brief, anti-cAMP cryptate (donor fluorophore) and cAMP-d2 (acceptor fluorophore) were made up separately by diluting each 1 in 20 in conjugate and lysis buffer provided in the kit. Anti-cAMP cryptate was added to all wells of the assay plate, followed by cAMP-d2 added to all wells except non-specific binding (NSB) wells (to which conjugate and lysis buffer was added).
Data was transformed to % Delta F as described in the manufacturer's guidelines and analyzed by 4-parameter logistic fit to determine EC50 values.

human GLP-1 receptor = human GLP-1 receptor (human, UniProt P43220); assay: cell-based or functional assay
human glucagon receptor = human glucagon receptor (human, UniProt P47871); assay: cell-based or functional assay

T1 sequence (P43220 24-463): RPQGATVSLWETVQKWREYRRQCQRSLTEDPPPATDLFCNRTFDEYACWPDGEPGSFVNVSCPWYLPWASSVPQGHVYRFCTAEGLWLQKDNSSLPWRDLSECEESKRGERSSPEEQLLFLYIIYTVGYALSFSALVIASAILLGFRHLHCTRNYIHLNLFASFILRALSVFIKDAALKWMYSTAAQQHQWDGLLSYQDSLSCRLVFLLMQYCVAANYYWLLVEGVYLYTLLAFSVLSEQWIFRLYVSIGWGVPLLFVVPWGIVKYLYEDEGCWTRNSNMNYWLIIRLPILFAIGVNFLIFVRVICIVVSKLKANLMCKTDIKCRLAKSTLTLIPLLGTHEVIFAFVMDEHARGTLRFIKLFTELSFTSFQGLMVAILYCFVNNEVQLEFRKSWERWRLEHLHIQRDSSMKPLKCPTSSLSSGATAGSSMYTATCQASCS

- % Relative Potency Ratio ([1]; Table 8): 0.9
Molecule: CC[C@H](C)[C@H](NC(=O)[C@H](Cc1c[nH]c2ccccc12)NC(=O)[C@H](CCCCNC(=O)COCCOCCNC(=O)COCCOCCNC(=O)CC[C@H](NC(=O)CC[C@H](NC(=O)CCCCCCCCCCCCCCCCC(=O)O)C(=O)O)C(=O)O)NC(=O)[C@@H](NC(=O)[C@](C)(Cc1ccccc1)NC(=O)[C@H](CC(=O)O)NC(=O)[C@H](CCC(N)=O)NC(=O)[C@H](C)NC(=O)[C@H](C)NC(=O)[C@H](CCCNC(=N)N)NC(=O)[C@H](CO)NC(=O)[C@H](CC(=O)O)NC(=O)[C@H](CC(C)C)NC(=O)[C@](C)(Cc1ccccc1)NC(=O)[C@H](CCCCN)NC(=O)[C@H](CO)NC(=O)[C@@H](NC(=O)[C@H](CC(=O)O)NC(=O)[C@H](CO)NC(=O)[C@@H](NC(=O)[C@](C)(Cc1ccccc1)NC(=O)[C@H](CO)NC(=O)CNC(=O)[C@H](Cc1c[nH]cn1)NC(=O)C(C)(C)NC(=O)[C@@H](N)Cc1c[nH]cn1)[C@@H](C)O)C(C)C)C(C)C)C(=O)N[C@@H](C)C(=O)N[C@@H](CC(N)=O)C(=O)N[C@H](C(N)=O)[C@@H](C)O [Peptide 371] (H-H[Aib]HGS[αMeF]TSDVSK[αMeF]LDSRAAQD[αMeF]VK([AEEA-AEEA-γGlu-γGlu-C18 diacid])WIANT-NH2; N-terminus assumed)

Molecule: CC(C)C[C@H](NC(=O)[C@H](CCC(=O)O)NC(=O)[C@H](CC(C)C)NC(=O)[C@](C)(Cc1ccccc1)NC(=O)[C@H](CCCCN)NC(=O)[C@H](CO)NC(=O)[C@@H](NC(=O)[C@H](CC(=O)O)NC(=O)[C@H](CO)NC(=O)[C@@H](NC(=O)[C@H](Cc1ccccc1)NC(=O)[C@@H](NC(=O)CNC(=O)[C@H](CCC(N)=O)NC(=O)C(C)(C)NC(=O)[C@@H](N)Cc1c[nH]cn1)[C@@H](C)O)[C@@H](C)O)C(C)C)C(=O)N[C@@H](CCCCNC(=O)COCCOCCNC(=O)COCCOCCNC(=O)CC[C@H](NC(=O)CCCCCCCCCCCCCCCCC(=O)O)C(=O)O)C(=O)N[C@@H](CCCNC(=N)N)C(=O)N[C@@H](C)C(=O)N[C@@H](CCC(N)=O)C(=O)N[C@@H](CC(=O)O)C(=O)N[C@@H](Cc1ccccc1)C(=O)N[C@H](C(=O)N[C@@H](CCCNC(=N)N)C(=O)N[C@@H](Cc1c[nH]c2ccccc12)C(=O)N[C@@H](CC(C)C)C(=O)N[C@@H](CC(C)C)C(=O)NC(C)(C)C(=O)N[C@H](C(=O)N[C@@H](CCC(=O)O)C(=O)O)[C@@H](C)O)C(C)C [Peptide 169] (H-H[Aib]QGTFTSDVSK[αMeF]LELK([AEEA-AEEA-γGlu-C18 diacid])RAQDFVRWLL[Aib]TE-OH; N-terminus assumed)
- % Relative Potency Ratio ([1]; Table 6): 13.2

- % Relative Potency Ratio ([1]; Table 8): 5.1
Molecule: CC[C@H](C)[C@H](NC(=O)[C@H](Cc1c[nH]c2ccccc12)NC(=O)[C@H](CCCCNC(=O)COCCOCCNC(=O)COCCOCCNC(=O)CC[C@H](NC(=O)CC[C@H](NC(=O)CCCCCCCCCCCCCCCCC(=O)O)C(=O)O)C(=O)O)NC(=O)[C@@H](NC(=O)[C@H](Cc1ccccc1)NC(=O)[C@H](CC(=O)O)NC(=O)[C@H](CCC(N)=O)NC(=O)[C@H](C)NC(=O)[C@H](C)NC(=O)[C@H](CCCNC(=N)N)NC(=O)[C@H](CO)NC(=O)[C@H](CC(=O)O)NC(=O)[C@H](CC(C)C)NC(=O)[C@](C)(Cc1ccccc1)NC(=O)[C@H](CCCCN)NC(=O)[C@H](CO)NC(=O)[C@@H](NC(=O)[C@H](CC(=O)O)NC(=O)[C@H](CO)NC(=O)[C@@H](NC(=O)[C@](C)(Cc1ccccc1)NC(=O)[C@H](CO)NC(=O)CNC(=O)[C@H](Cc1c[nH]cn1)NC(=O)C(C)(C)NC(=O)[C@@H](N)Cc1c[nH]cn1)[C@@H](C)O)C(C)C)C(C)C)C(=O)N[C@@H](C)C(=O)N[C@@H](CC(N)=O)C(=O)N[C@H](C(=O)NCC(N)=O)[C@@H](C)O [Peptide 363] (H-H[Aib]HGS[αMeF]TSDVSK[αMeF]LDSRAAQDFVK([AEEA-AEEA-γGlu-γGlu-C18 diacid])WIANTG-NH2; N-terminus assumed)

- % Relative Potency Ratio ([1]; Table 8): 7.2
Molecule: CC[C@H](C)[C@H](NC(=O)C(C)(C)NC(=O)[C@H](CCCCNC(=O)COCCOCCNC(=O)COCCOCCNC(=O)CC[C@H](NC(=O)CC[C@H](NC(=O)CCCCCCCCCCCCCCCCC(=O)O)C(=O)O)C(=O)O)NC(=O)[C@@H](NC(=O)[C@](C)(Cc1ccccc1)NC(=O)[C@H](CC(=O)O)NC(=O)[C@H](CCC(N)=O)NC(=O)[C@H](C)NC(=O)[C@H](C)NC(=O)[C@H](CCCNC(=N)N)NC(=O)[C@H](CO)NC(=O)[C@H](CC(=O)O)NC(=O)[C@H](CC(C)C)NC(=O)[C@](C)(Cc1ccccc1)NC(=O)[C@H](CCCCN)NC(=O)[C@H](CO)NC(=O)[C@@H](NC(=O)[C@H](CC(=O)O)NC(=O)[C@H](CO)NC(=O)[C@@H](NC(=O)[C@](C)(Cc1ccccc1)NC(=O)[C@H](CO)NC(=O)CNC(=O)[C@H](Cc1c[nH]cn1)NC(=O)C(C)(C)NC(=O)[C@@H](N)Cc1c[nH]cn1)[C@@H](C)O)C(C)C)C(C)C)C(=O)N[C@@H](C)C(=O)N[C@@H](CC(N)=O)C(=O)N[C@H](C(=O)NCC(=O)NCC(N)=O)[C@@H](C)O [Peptide 373] (H-H[Aib]HGS[αMeF]TSDVSK[αMeF]LDSRAAQD[αMeF]VK([AEEA-AEEA-γGlu-γGlu-C18 diacid])[Aib]IANTGG-NH2; N-terminus assumed)

Molecule: CC[C@H](C)[C@H](NC(=O)[C@H](Cc1c[nH]c2ccccc12)NC(=O)[C@H](CCCCNC(=O)CC[C@H](NC(=O)CCCCCCCCCCCCCCCCCCC(=O)O)C(=O)O)NC(=O)[C@@H](NC(=O)[C@H](Cc1ccccc1)NC(=O)[C@H](CC(=O)O)NC(=O)[C@H](CCC(N)=O)NC(=O)[C@H](C)NC(=O)[C@H](C)NC(=O)[C@H](CCC(N)=O)NC(=O)[C@H](CO)NC(=O)[C@H](CC(=O)O)NC(=O)[C@H](CC(C)C)NC(=O)[C@](C)(Cc1ccccc1)NC(=O)[C@H](CCCCN)NC(=O)[C@H](CO)NC(=O)[C@@H](NC(=O)[C@H](CC(=O)O)NC(=O)[C@H](CO)NC(=O)[C@@H](NC(=O)[C@](C)(Cc1ccccc1)NC(=O)[C@H](CO)NC(=O)CNC(=O)[C@H](Cc1c[nH]cn1)NC(=O)C(C)(C)NC(=O)[C@@H](N)Cc1c[nH]cn1)[C@@H](C)O)C(C)C)C(C)C)C(=O)N[C@@H](C)C(=O)N[C@@H](CC(N)=O)C(=O)N[C@H](C(N)=O)[C@@H](C)O [Peptide 354]
- % Relative Potency Ratio ([1]; Table 8): 1.6

Molecule: CC[C@H](C)[C@H](NC(=O)[C@H](Cc1c[nH]c2ccccc12)NC(=O)[C@H](CCCCNC(=O)CCOCCOCCNC(=O)CCOCCOCCNC(=O)CC[C@H](NC(=O)CC[C@H](NC(=O)CCCCCCCCCCCCCCCCC(=O)O)C(=O)O)C(=O)O)NC(=O)[C@@H](NC(=O)[C@H](Cc1ccccc1)NC(=O)[C@H](CC(=O)O)NC(=O)[C@H](CCC(N)=O)NC(=O)[C@H](C)NC(=O)[C@H](C)NC(=O)[C@H](CCC(N)=O)NC(=O)[C@H](CO)NC(=O)[C@H](CC(=O)O)NC(=O)[C@H](CC(C)C)NC(=O)[C@](C)(Cc1ccccc1)NC(=O)[C@H](CCCCN)NC(=O)[C@H](CO)NC(=O)[C@@H](NC(=O)[C@H](CC(=O)O)NC(=O)[C@H](CO)NC(=O)[C@@H](NC(=O)[C@](C)(Cc1ccccc1)NC(=O)[C@H](CO)NC(=O)CNC(=O)[C@H](Cc1c[nH]cn1)NC(=O)C(C)(C)NC(=O)[C@@H](N)Cc1c[nH]cn1)[C@@H](C)O)C(C)C)C(C)C)C(=O)N[C@@H](C)C(=O)N[C@@H](CC(N)=O)C(=O)N[C@H](C(N)=O)[C@@H](C)O [Peptide 352] (H-H[Aib]HGS[αMeF]TSDVSK[αMeF]LDSQAAQDFVK([PEG2-PEG2-γGlu-γGlu-C18 diacid])WIANT-NH2)
- % Relative Potency Ratio ([1]; Table 8): 1.4

- hGLP-1R EC50 (pM) (human GLP-1 receptor): 194 pM
- hGluc-R EC50 (pM) (human glucagon receptor): 690 pM
B1: Peptide 526 (peptide)
peptide: H[Aib]QGTFTSDVSK[αMeF]LDSERAK([AEEA-AEEA-γGlu-C18 diacid])DFVAWLEA[Aib]G-OH
modifications: N-terminus assumed
SMILES: CC(C)C[C@H](NC(=O)[C@H](Cc1c[nH]c2ccccc12)NC(=O)[C@H](C)NC(=O)[C@@H](NC(=O)[C@H](Cc1ccccc1)NC(=O)[C@H](CC(=O)O)NC(=O)[C@H](CCCCNC(=O)COCCOCCNC(=O)COCCOCCNC(=O)CC[C@H](NC(=O)CCCCCCCCCCCCCCCCC(=O)O)C(=O)O)NC(=O)[C@H](C)NC(=O)[C@H](CCCNC(=N)N)NC(=O)[C@H](CCC(=O)O)NC(=O)[C@H](CO)NC(=O)[C@H](CC(=O)O)NC(=O)[C@H](CC(C)C)NC(=O)[C@](C)(Cc1ccccc1)NC(=O)[C@H](CCCCN)NC(=O)[C@H](CO)NC(=O)[C@@H](NC(=O)[C@H](CC(=O)O)NC(=O)[C@H](CO)NC(=O)[C@@H](NC(=O)[C@H](Cc1ccccc1)NC(=O)[C@@H](NC(=O)CNC(=O)[C@H](CCC(N)=O)NC(=O)C(C)(C)NC(=O)[C@@H](N)Cc1c[nH]cn1)[C@@H](C)O)[C@@H](C)O)C(C)C)C(C)C)C(=O)N[C@@H](CCC(=O)O)C(=O)N[C@@H](C)C(=O)NC(C)(C)C(=O)NCC(=O)O
